Experimental data taken from patent publication US4299915A (priority 1977, dated 1981).
Like-named read-outs stand apart in the source and are kept apart here.

How the values were obtained:
[1] = tested on: 5-methyltryptophan-sensitive bacteria; details: cited from earlier work
[2] = tested on: S. typhimurium strain TM35
[3] = tested on: mixed population of 8AG^S and 8AG^R cells; assay: Reconstruction experiment 2: mixed 8AG^R/8AG^S population exposed to the mutation assay protocol; details: 2 hr
[4] = tested on: 8AG^R mutant fraction of S. typhimurium cultures
wild-type control = type: cell-based, S. typhimurium
8AG^R mutants = assay: Uptake of tagged 8AG by 8AG^R mutant clones; type: cell-based, S. typhimurium
8AG^R clones = type: cell-based, S. typhimurium; details: for plating efficiency, 8AG w/cells: 50 ug/ml 8AG plus 10^6 8AG^S cells; for plating efficiency, 8AG: 50 ug/ml 8AG, control 1.00

Cc1ccc2[nH]cc(C[C@H](N)C(=O)O)c2c1 [5-methyltryptophan]
growth inhibition of 5-methyltryptophan-sensitive bacteria [1]: not completely inhibited
effect of varying the concentration on observed mutant fraction ([1]; varying concentration): changes the observed mutant fraction

O=C1CCO1 [βPL, β-propiolactone]
induced mutant fractions (M.F.) [2]: significantly higher than background levels
ratio of 8AG^R cells to 8AG^S cells in the treated population ([3]; 0, 0.16, and 1.60 mM): did not suffer significantly
survival of the mixed population ([3]; high concentration (0, 0.16 and 1.60 mM tested)): killed a significant portion of the mixed population

COc1ccc2nc3cc(Cl)ccc3c(NCCCNCCCl)c2c1 [ICR-191]
induced mutant fractions (M.F.) [2]: significantly higher than background levels
8AG^R mutant fraction when cultures are allowed to grow before plating [4]: drops significantly and then stabilizes at a constant level

Nc1nc2nn[nH]c2c(=O)[nH]1 [8AG, 8-azaguanine]
8AG incorporation rate of the wild-type control (wild-type control): 5×10^-18 moles/cell-hr
Uptake in the control over time (wild-type control): linear through the 2 hr incubation
activity (8AG incorporation), mutants with no detectable activity (8AG^R mutants; 9 of the mutants tested): < 0.04%
8AG Inc. (% wild-type) (8AG^R mutants; mutant 9AA-1 (induced by 9AA)): < 0.04 % wild-type
8AG Inc. (% wild-type) (8AG^R mutants; mutant 9AA-2 (induced by 9AA)): < 0.04 % wild-type
8AG Inc. (% wild-type) (8AG^R mutants; mutant 9AA-3 (induced by 9AA)): < 0.04 % wild-type
8AG Inc. (% wild-type) (8AG^R mutants; mutant 9AA-4 (induced by 9AA)): < 0.04 % wild-type
8AG Inc. (% wild-type) (8AG^R mutants; mutant 9AA-5 (induced by 9AA)): < 0.04 % wild-type
8AG Inc. (% wild-type) (8AG^R mutants; mutant BPL-1 (induced by βPL)): 0.1 % wild-type
8AG Inc. (% wild-type) (8AG^R mutants; mutant BPL-2 (induced by βPL)): 2.5 % wild-type
8AG Inc. (% wild-type) (8AG^R mutants; mutant BPL-3 (induced by βPL)): 7.1 % wild-type
8AG Inc. (% wild-type) (8AG^R mutants; mutant BPL-4 (induced by βPL)): 1.8 % wild-type
8AG Inc. (% wild-type) (8AG^R mutants; mutant BPL-5 (induced by βPL)): 1.2 % wild-type
8AG Inc. (% wild-type) (8AG^R mutants; mutant ICR-1 (induced by ICR191)): < 0.04 % wild-type
8AG Inc. (% wild-type) (8AG^R mutants; mutant ICR-2 (induced by ICR191)): < 0.04 % wild-type
8AG Inc. (% wild-type) (8AG^R mutants; mutant ICR-3 (induced by ICR191)): 0.80 % wild-type
8AG Inc. (% wild-type) (8AG^R mutants; mutant ICR-4 (induced by ICR191)): < 0.04 % wild-type
8AG Inc. (% wild-type) (8AG^R mutants; mutant ICR-5 (induced by ICR191)): 11.8 % wild-type
8AG Inc. (% wild-type) (8AG^R mutants; mutant NG-1 (induced by MNNG)): 0.04 % wild-type
8AG Inc. (% wild-type) (8AG^R mutants; mutant NG-2 (induced by MNNG)): 5.1 % wild-type
8AG Inc. (% wild-type) (8AG^R mutants; mutant NG-3 (induced by MNNG)): 2.2 % wild-type
8AG Inc. (% wild-type) (8AG^R mutants; mutant NG-4 (induced by MNNG)): 4.9 % wild-type
8AG Inc. (% wild-type) (8AG^R mutants; mutant NG-5 (induced by MNNG)): 3.2 % wild-type
8AG Inc. (% wild-type) (8AG^R mutants; mutant S-1 (spontaneous)): 2.4 % wild-type
8AG Inc. (% wild-type) (8AG^R mutants; mutant S-2 (spontaneous)): 1.7 % wild-type
8AG Inc. (% wild-type) (8AG^R mutants; mutant S-3 (spontaneous)): 18.3 % wild-type
8AG Inc. (% wild-type) (8AG^R mutants; mutant S-4 (spontaneous)): 5.9 % wild-type
8AG Inc. (% wild-type) (8AG^R mutants; mutant S-5 (spontaneous)): 19.5 % wild-type
effect on plating efficiency, 8AG alone (8AG^R clones): no effect
effect on plating efficiency, 8AG with 8AG^S cells (8AG^R clones): did decrease plating efficiency slightly
plating efficiency, 8AG w/cells (8AG^R clones; clone S-1): 0.8 ± .07
plating efficiency, 8AG (8AG^R clones; clone S-1): 0.93 ± .05
plating efficiency, 8AG w/cells (8AG^R clones; clone S-2): 1.04 ± .03
plating efficiency, 8AG (8AG^R clones; clone S-2): 1.16 ± .03
plating efficiency, 8AG w/cells (8AG^R clones; clone S-3, * statistically less than control (p < .05)): 0.87 ± .08
plating efficiency, 8AG (8AG^R clones; clone S-3): 0.95 ± .03
plating efficiency, 8AG w/cells (8AG^R clones; clone S-4, * statistically less than control (p < .05)): 0.83 ± .03
plating efficiency, 8AG (8AG^R clones; clone S-4): 0.98 ± .01
plating efficiency, 8AG w/cells (8AG^R clones; clone S-5, * statistically less than control (p < .05)): 0.73 ± .08
plating efficiency, 8AG (8AG^R clones; clone S-5): 0.92 ± .01

Nc1c2ccccc2nc2ccccc12 [9AA, 9-aminoacridine]
induced mutant fractions (M.F.) [2]: significantly higher than background levels
